# Values of other authors in patent US12599131B2, “Disinfectant composition” (KAO CORPORATION, priority 2020, dated 2026).
# Details: 0.1 mol/L in water, Handbook of Chemistry or Chemicalize
row,SMILES,pKa (25° C.)
1,CCCCCC(=O)O [caproic acid],4.6
2,CCCCCCCCCC(=O)O [capric acid],4.95
3,O=C(O)CCCCC(=O)O [adipic acid],4.3
4,CCCCCCCCC(CCCCCCCC)C(=O)O [2-octyldecanoic acid],4.98
5,CCCCCCCCC(CCCCCC)C(=O)O (stereo not drawn) [2-hexyldecanoic acid],5.12
6,O=CO [formic acid],3.54
